Results reported in US10800791B2, “Triazole ACC inhibitors and uses thereof” (Gilead Apollo, LLC, priority 2015, dated 2020).
In brackets after ≈: the same amount, converted by molar mass. Like-named read-outs stand apart in the source and are kept apart here.

Columns and labels:
C. krusei = assay: Antifungal Activity Assay (broth microtiter MIC), C. krusei; format: cell-based, Candida krusei; conditions: Pichia kudriavzevii, ATCC6258, 48 h, ATCC 6258, 3 replicates, MIC recorded at 48 h, read-out: MIC, C. krusei ATCC 6258
Procedure, shortened: (§1)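 CLSI M27-A3 microdilution; RPMI 1640+MOPS; 2.5×10^3 CFU/mL final inoculum; cultures from Sabouraud dextrose agar, 35° C overnight; compound working solution 128 μg/mL from 1 mg/mL DMSO stock; visual MIC at 48 h vs growth control.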

[1] = system: Fusarium moniliforme (Fm); assay: Growth inhibition assay of fungal pathogens, Fm; format: cell-based; conditions: Fusarium verticillioides, 48 h, Fusarium moniliforme; growth inhibition at 48 hours vs 2% DMSO control; read-out: Concentration at 90% Inhibition Fm
Method: (§2) Compounds of the present invention were evaluated in a growth inhibition assay to determine the ability to control the growth of fungal pathogens, such as Botrtyis cinerea (Bc), Collectotrichum graminicola (Cg), Diplodia maydis (Dm), Fusarium moniliforme (Fm), Fusarium virguliforme (Fv), Phytophthora capsici (Pc), Rhizoctonia solani (Rs), and Septoria tritici (St).
(§3) Compounds to be tested were dissolved in DMSO at 2.5 mg/ml to produce compound stock solutions (“stocks”). Stocks were diluted with DMSO by a five-fold dilution in a 96-well stock plate, and two sets of final concentrations of 50, 10, and 2 ppm or 2, 0.4, and 0.08 ppm were obtained in vitro. A set of positive controls was also prepared, with various concentrations of Soraphen (2, 0.4, and 0.08 ppm), Metalaxyl (1.1, 0.22, and 0.04 ppm), and Metconazole (2, 0.4, and 0.08 ppm or 0.2, 0.04, and 0.008 ppm) after the five-fold dilutions. Negative controls on each plate included 2% DMSO, water, and a blank (media+2% DMSO).
(§4) Fungal spores were isolated from previously sub-cultured plates of Botrtyis cinerea (Bc), Collectotrichum graminicola (Cg), Diplodia maydis (Dm), Fusarium moniliforme (Fm), Fusarium virguliforme (Fv), Phytophthora capsici (Pc), and Septoria tritici (St). The isolated spores were diluted to individual concentrations with a 17% V8 liquid media. For Rhizoctonia solani (Rs) and Pythium irregulare, 1.5 mm mycelial plugs were used in place of spores and/4 Potato Dextrose Broth (PDB) was used for dilution. The spore concentrations and plug sizes were based on growth curves generated at 48 hours for each pathogen.
(§5) In a second 96-well plate, the spores or mycelial plugs, media, diluted compound solutions, and controls were combined. Once the compound was added, a true final concentration of compound in each well was measured by an OD600 reading, which adjusted for any compound precipitation that might have occurred in the well. Plate readings were repeated at both 24 and 48 hours. The blank negative control was used as a background subtraction. Additional visual ratings were performed at both 24 and 48 hours for checking on precipitation and confirming efficacy. Visual and OD600 ratings of the compounds at 48 hours were compared to the 2% DMSO negative control, and the percent of pathogen growth inhibition was determined based on those values.

[2] = system: Phytophthora capsici (Pc); assay: Growth inhibition assay of fungal pathogens, Pc; format: cell-based; conditions: 48 h, growth inhibition at 48 hours vs 2% DMSO control, read-out: Concentration at 90% Inhibition Pc
Method: as §2, §3, §4, §5

[3] = system: Collectotrichum graminicola (Cg); assay: Growth inhibition assay of fungal pathogens, Cg; format: cell-based; conditions: 48 h, Collectotrichum graminicola; growth inhibition at 48 hours vs 2% DMSO control; read-out: Concentration at 90% Inhibition Cg
Method: as §2, §3, §4, §5

C. parapsilosis = assay: Antifungal Activity Assay (broth microtiter MIC), C. parapsilosis; format: cell-based, Candida parapsilosis; conditions: Lodderomyces parapsilosis, ATCC22019, 48 h, ATCC 22019, 3 replicates, MIC recorded at 48 h, read-out: MIC, C. parapsilosis ATCC 22019
Procedure, shortened: as §1

Septoria tritici (St) = assay: Growth inhibition assay of fungal pathogens, St; format: cell-based; conditions: Zymoseptoria tritici, 48 h, Septoria tritici; growth inhibition at 48 hours vs 2% DMSO control; read-out: Concentration at 90% Inhibition St
Method: as §2, §3, §4, §5

Rhizoctonia solani (Rs) = assay: Growth inhibition assay of fungal pathogens, Rs; format: cell-based; conditions: 48 h, mycelial plugs, growth inhibition at 48 hours vs 2% DMSO control, read-out: Concentration at 90% Inhibition Rs
Method: as §2, §3, §4, §5

fungal (fACC2) = fungal (fACC2) (UniProt Q00955); conditions: read-out: fACC2 (in vitro ACC2 Inhibition Assay, IC50), ADP-Glo, 5 nM ACC2, 20 μM ATP, 20 μM acetyl-CoA
Sequence of fungal (fACC2) (Q00955 whole entry): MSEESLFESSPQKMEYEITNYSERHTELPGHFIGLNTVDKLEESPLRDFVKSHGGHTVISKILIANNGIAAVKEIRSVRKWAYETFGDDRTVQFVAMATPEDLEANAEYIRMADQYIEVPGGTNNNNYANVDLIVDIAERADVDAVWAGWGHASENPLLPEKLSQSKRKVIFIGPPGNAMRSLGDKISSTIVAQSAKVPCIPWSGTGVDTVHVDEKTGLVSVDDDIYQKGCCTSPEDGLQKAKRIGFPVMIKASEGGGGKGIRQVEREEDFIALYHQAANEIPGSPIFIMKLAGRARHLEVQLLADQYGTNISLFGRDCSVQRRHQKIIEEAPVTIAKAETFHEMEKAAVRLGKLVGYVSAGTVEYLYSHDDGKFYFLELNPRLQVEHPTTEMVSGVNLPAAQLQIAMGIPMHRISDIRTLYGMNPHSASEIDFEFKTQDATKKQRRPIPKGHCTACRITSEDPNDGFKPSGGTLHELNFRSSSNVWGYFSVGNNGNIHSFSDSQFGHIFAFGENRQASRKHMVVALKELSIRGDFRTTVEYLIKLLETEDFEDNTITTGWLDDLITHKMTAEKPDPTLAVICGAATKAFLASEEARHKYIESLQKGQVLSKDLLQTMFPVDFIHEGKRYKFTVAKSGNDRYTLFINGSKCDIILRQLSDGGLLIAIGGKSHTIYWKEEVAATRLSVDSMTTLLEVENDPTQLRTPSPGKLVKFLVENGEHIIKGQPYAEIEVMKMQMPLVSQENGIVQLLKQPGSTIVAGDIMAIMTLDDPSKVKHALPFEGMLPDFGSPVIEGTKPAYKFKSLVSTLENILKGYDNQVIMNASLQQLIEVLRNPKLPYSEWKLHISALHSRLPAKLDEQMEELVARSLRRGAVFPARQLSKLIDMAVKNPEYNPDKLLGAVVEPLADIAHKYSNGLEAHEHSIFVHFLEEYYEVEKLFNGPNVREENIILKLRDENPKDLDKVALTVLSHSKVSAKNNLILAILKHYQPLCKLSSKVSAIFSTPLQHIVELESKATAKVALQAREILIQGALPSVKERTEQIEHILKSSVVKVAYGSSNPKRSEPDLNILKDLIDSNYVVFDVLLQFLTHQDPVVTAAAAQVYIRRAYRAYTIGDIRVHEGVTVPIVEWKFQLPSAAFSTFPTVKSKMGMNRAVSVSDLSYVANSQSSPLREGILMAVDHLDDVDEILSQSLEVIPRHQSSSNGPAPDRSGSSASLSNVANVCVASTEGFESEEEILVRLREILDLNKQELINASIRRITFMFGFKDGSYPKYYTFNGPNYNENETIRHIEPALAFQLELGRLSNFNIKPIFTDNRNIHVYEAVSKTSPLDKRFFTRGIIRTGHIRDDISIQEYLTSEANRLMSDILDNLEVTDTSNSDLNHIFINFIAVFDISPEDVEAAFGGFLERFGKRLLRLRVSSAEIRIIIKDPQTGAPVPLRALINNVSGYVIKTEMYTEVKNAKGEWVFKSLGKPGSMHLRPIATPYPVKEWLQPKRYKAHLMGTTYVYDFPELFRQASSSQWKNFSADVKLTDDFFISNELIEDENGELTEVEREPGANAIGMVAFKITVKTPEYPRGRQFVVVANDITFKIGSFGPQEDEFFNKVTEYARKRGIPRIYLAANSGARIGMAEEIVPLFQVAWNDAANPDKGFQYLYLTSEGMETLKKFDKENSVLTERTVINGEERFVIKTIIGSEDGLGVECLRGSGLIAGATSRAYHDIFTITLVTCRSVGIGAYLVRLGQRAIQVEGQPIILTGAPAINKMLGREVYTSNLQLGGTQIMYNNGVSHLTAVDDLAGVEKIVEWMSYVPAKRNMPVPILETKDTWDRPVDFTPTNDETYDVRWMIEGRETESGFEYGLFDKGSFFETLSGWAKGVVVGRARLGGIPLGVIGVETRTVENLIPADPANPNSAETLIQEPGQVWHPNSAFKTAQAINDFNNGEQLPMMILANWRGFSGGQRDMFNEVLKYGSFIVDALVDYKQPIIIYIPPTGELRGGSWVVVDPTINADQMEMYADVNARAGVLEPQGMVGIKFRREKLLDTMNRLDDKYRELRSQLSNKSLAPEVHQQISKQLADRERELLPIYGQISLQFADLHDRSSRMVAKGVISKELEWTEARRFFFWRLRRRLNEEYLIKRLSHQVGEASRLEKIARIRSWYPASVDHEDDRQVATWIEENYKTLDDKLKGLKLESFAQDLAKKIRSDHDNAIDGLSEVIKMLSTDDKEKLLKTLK
Method: An exemplary procedure for the in vitro ACC inhibition assay, which can be used to determine the inhibitory action of compounds of the invention toward either human (hACC2) or fungal (fACC2), follows. The ADP-Glo™ Kinase Assay kit from Promega was used. The ADP-Glo™ Kinase Assay is a luminescent ADP detection assay to measure enzymatic activity by quantifying the amount of ADP produced during an enzyme reaction. The assay is performed in two steps; first, after the enzyme reaction, an equal volume of ADP-Glo™ Reagent is added to terminate the reaction and deplete the remaining ATP. Second, the Kinase Detection Reagent is added to simultaneously convert ADP to ATP and allow the newly synthesized ATP to be measured using a luciferase/luciferin reaction. Luminescence can be correlated to ADP concentrations by using an ATP-to-ADP conversion curve. […] 50 μL of the compound being tested (600 μM in DMSO) was added to a 384-well dilution plate. The compound was diluted 1:3 in succession in DMSO for each row for 11 wells. 0.5 μL ACC2 working solution was added to 384-well white Optiplate assay plate. 0.5 μL diluted compound solution in each column from step 2 was added to assay plate, each row containing 2 replicates. […] The plates were incubated at room temperature for 15 minutes. 5 μL substrate working solution was added to each well to initiate reaction. Final ACC2 reaction concentrations consist of: 5 nM ACC2, 20 μM ATP, 20 μM acetyl-CoA, 12 mM NaHCO3, 0.01% Brij35, 2 mM DTT, 5% DMSO, test compound concentrations: 30 μM, 10 μM, 3.33 μM, 1.11 μM, 0.37 μM, 0.123 μM, 0.0411 μM, 0.0137 μM, 0.00457 μM, 0.00152 μM, and 0.00051 μM. Plates were incubated at room temperature for 60 minutes. 10 μL ADP glo reagent was added. Plates were incubated at room temperature for 40 minutes. 20 μL kinase detection reagent was added. Plates were incubated at room temperature for 40 minutes, and then read on a Perkin Elmer EnVision 2104 plate reader for luminescence as Relative Light Units (RLU).
Data for each concentration, as well as the positive and negative controls were averaged, and the standard deviation calculated. Percent inhibition was calculated by the formula: 100×(average negative control−compound)/(average negative control−average positive control). The IC50 for each compound was calculated by fitting the data with a non-linear regression equation: Y=Bottom+(Top−Bottom)/(1+10 ((Log IC50−X)*HillSlope)), where X is the log of compound concentration and Y is percent inhibition.

[4] = system: Fusarium virguliforme (Fv); assay: Growth inhibition assay of fungal pathogens, Fv; format: cell-based; conditions: 48 h, growth inhibition at 48 hours vs 2% DMSO control, read-out: Concentration at 90% Inhibition Fv
Method: as §2, §3, §4, §5

Botrtyis cinerea (Bc) = assay: Growth inhibition assay of fungal pathogens, Bc; format: cell-based; conditions: 48 h, Botrtyis cinerea; growth inhibition at 48 hours vs 2% DMSO control; read-out: Concentration at 90% Inhibition Bc
Method: as §2, §3, §4, §5

human (hACC2) = human (hACC2) (Homo sapiens, UniProt O00763); assay: In vitro ACC inhibition assay (ADP-Glo), hACC2; format: biochemical; conditions: 5 nM ACC2, 20 μM ATP, 20 μM acetyl-CoA
Sequence of human (hACC2) (O00763 whole entry): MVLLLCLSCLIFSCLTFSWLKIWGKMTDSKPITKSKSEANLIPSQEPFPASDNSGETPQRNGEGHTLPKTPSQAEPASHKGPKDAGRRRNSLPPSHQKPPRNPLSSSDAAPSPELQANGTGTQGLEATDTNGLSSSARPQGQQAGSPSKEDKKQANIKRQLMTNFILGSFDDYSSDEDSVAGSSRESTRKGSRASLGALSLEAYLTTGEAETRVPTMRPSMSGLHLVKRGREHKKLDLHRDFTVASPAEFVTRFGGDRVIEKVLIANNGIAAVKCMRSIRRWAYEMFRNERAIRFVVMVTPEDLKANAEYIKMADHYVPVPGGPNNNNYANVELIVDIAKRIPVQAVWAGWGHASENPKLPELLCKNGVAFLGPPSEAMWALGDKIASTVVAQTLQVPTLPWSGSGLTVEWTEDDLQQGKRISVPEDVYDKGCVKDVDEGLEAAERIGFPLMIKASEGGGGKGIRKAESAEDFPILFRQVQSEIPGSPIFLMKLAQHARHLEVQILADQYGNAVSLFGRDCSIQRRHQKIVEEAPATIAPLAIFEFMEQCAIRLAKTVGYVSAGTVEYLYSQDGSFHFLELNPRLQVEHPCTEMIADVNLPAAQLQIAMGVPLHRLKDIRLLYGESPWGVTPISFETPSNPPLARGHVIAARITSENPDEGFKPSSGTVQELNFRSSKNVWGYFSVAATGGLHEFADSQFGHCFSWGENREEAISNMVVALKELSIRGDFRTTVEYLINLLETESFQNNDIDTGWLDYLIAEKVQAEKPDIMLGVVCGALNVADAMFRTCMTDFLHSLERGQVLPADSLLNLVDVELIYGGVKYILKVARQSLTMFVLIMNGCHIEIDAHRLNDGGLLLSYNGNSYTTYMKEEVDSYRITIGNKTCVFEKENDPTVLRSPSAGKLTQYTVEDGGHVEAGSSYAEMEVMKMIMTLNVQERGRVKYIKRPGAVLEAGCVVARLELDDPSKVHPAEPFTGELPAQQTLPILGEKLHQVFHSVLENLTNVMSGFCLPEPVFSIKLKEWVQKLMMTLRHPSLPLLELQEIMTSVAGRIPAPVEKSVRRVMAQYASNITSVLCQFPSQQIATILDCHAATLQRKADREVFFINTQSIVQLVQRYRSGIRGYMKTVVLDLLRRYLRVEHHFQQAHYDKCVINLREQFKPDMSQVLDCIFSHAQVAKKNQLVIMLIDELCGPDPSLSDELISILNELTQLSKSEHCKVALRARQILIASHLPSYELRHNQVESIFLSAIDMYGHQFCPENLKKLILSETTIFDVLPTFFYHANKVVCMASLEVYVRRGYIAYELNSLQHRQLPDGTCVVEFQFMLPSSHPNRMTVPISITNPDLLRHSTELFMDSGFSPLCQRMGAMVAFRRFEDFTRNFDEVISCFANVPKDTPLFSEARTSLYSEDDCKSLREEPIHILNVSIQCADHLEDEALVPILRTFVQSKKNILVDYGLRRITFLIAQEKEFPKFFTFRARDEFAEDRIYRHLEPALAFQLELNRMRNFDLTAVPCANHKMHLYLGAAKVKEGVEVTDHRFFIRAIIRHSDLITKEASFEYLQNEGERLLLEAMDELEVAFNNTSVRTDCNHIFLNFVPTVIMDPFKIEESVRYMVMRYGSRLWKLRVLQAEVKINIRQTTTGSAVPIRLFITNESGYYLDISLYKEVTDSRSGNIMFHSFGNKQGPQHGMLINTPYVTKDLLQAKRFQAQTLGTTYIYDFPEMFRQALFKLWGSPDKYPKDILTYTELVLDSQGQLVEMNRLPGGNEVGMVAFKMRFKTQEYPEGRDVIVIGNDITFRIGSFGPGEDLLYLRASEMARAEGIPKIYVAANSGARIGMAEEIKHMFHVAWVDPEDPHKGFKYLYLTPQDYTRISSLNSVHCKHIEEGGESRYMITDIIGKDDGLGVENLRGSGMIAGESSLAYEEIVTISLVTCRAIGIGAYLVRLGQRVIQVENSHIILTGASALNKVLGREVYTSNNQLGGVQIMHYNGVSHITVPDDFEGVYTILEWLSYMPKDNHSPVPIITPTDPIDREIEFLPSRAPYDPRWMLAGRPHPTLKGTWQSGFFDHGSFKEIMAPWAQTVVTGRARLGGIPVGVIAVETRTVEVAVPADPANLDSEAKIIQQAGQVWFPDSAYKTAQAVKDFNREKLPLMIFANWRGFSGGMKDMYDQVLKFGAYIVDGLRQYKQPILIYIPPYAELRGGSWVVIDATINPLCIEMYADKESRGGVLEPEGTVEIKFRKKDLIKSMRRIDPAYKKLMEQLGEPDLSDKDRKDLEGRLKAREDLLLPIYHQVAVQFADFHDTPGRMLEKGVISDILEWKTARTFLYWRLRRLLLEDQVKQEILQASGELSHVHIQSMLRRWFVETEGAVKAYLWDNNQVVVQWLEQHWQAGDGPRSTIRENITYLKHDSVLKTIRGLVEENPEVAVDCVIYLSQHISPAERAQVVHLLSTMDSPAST
Method: The detailed procedure is as follows. […] 10 μL ADP glo reagent was added. […] 20 μL kinase detection reagent was added.

C. albicans = assay: Antifungal Activity Assay (broth microtiter MIC), C. albicans; format: cell-based, Candida albicans; conditions: Candida albicans, ATCC90028, 48 h, ATCC 90028, 3 replicates, MIC recorded at 48 h, read-out: MIC, C. albicans ATCC 90028
Procedure, shortened: as §1

Diplodia maydis (Dm) = assay: Growth inhibition assay of fungal pathogens, Dm; format: cell-based; conditions: Stenocarpella maydis, 48 h, Diplodia maydis; growth inhibition at 48 hours vs 2% DMSO control; read-out: Concentration at 90% Inhibition Dm
Method: as §2, §3, §4, §5

SMILES	MIC (C. krusei; Table 3a)	MIC (C. krusei; Table 3b (additional results))	IC90 [1]	IC90 [2]	IC90 [3]	MIC (C. parapsilosis; Table 3a)	MIC (C. parapsilosis; Table 3b (additional results))	IC90 (Septoria tritici (St))	IC90 (Rhizoctonia solani (Rs))	IC50 (fungal (fACC2); Table 2a)	IC50 (fungal (fACC2); Table 2b, additional results)	IC90 [4]	IC90 (Botrtyis cinerea (Bc))	IC50 (human (hACC2); Table 2a)	IC50 (human (hACC2); Table 2b, additional results)	MIC (C. albicans; Table 3a)	MIC (C. albicans; Table 3b (additional results))	IC90 (Diplodia maydis (Dm))
CCOC(=O)C(C)(C)n1c(=O)c2c(C)c(-n3nccn3)sc2n(C[C@H](OCCO)c2cc(F)ccc2OC)c1=O [Compound I-74, Ethyl (R)-2-(1-(2-(5-fluoro-2-methoxyphenyl)-2-(2-hydroxyethoxy)ethyl)-5-methyl-2,4-dioxo-6-(2H-1,2,3-triazol-2-yl)-1,4-dihydro-thieno[2,3-d]pyrimidin-3(2H)-yl)-2-methylpropanoate]	0.25 to 1 µg/mL (≈ 0.434 to 1.74 µM)	1.01 to 2 µg/mL (≈ 1.75 to 3.47 µM)	0.08 µg/mL (≈ 0.139 µM)	> 50 µg/mL	0.4 µg/mL (≈ 0.695 µM)	2.1 to 4 µg/mL (≈ 3.65 to 6.95 µM)	2.01 to 4 µg/mL (≈ 3.49 to 6.95 µM)	10 µg/mL (≈ 17.4 µM)	0.08 µg/mL (≈ 0.139 µM)	1 to 5 nM	1 to 5 nM	0.4 µg/mL (≈ 0.695 µM)	0.08 µg/mL (≈ 0.139 µM)	5 to 10 nM	5 to 10 nM	2.1 to 4 µg/mL (≈ 3.65 to 6.95 µM)	2.01 to 4 µg/mL (≈ 3.49 to 6.95 µM)	0.4 µg/mL (≈ 0.695 µM)
COc1ccc(F)cc1[C@@H](Cn1c(=O)n(C(C)(C)C(=O)NC(C)C)c(=O)c2c(C)c(-n3nccn3)sc21)OC(C)=O [Compound I-259]	–	–	0.08 µg/mL (≈ 0.136 µM)	> 50 µg/mL	0.4 µg/mL (≈ 0.682 µM)	–	–	> 50 µg/mL	0.08 µg/mL (≈ 0.136 µM)	–	1 to 5 nM	0.08 µg/mL (≈ 0.136 µM)	0.4 µg/mL (≈ 0.682 µM)	–	5 to 10 nM	–	–	0.4 µg/mL (≈ 0.682 µM)
